Our source for the GI50 and TGI values is PubChem BioAssay (NCI).

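Values below derive from 48-hour exposures of cells grown in 96-well plates, with endpoints linearly interpolated between the two concentrations bracketing the appropriate inhibition level. At the GI50, growth is halved. TGI is the concentration that stops growth completely.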

Common to all, as to experiment: growth of human tumour cells (NCI), 48 h
Test [1] relates to A549 NSCLC.
Test [2] deals with CCRF-CEM leukemia.
The test system of test [3] is COLO 205 colon.
Test [4] deals with M14 melanoma.
Test [5] relates to MDA-MB-231 breast.
The subject of test [6] is RXF 393 renal.
The subject of test [7] is SNB-19 CNS.
Test [8] concerns SR leukemia.
The test system of test [9] is U251 CNS.
The subject of test [10] is UO-31 renal.

As to `CCN(CCO)CCNc1ccc(C)c2sc3cc(Cl)ccc3c(=O)c12`, the GI50 in [1] was 1.73 µM; in test [2], 1.52 µM; in [3] it was 1.14 µM; in [4], 1.64 µM; in [5], 0.783 µM; in [6], 0.738 µM. For the same compound, the GI50 is 1.58 µM in [7], 0.751 µM in test [8], 1.4 µM in test [9] and 1.1 µM in test [10]. In addition, the TGI in test [1] was found to be 3.28 µM; in test [2] it was 3.46 µM; in test [3] it was 2.62 µM; in [4], 3.23 µM; in [5], 2.24 µM; in test [6], 2.2 µM. The TGI in test [7] was found to be 3.17 µM; in test [8], 2.78 µM; in test [9] it was 2.79 µM; in test [10], 2.4 µM.

Regarding `CCCCCC(=O)Oc1ccc(/C(=C(\C)c2ccc(OC)cc2)c2ccc(OCCN3CCCCC3)cc2)cc1`, the GI50 in test [1] was 10.1 µM; in test [2], 4.2 µM; in test [3], 2.02 µM; in test [4], 2.02 µM; in test [5], 9.32 µM; in [6] it was 1.8 µM. Besides, the GI50 in test [7] is 11.4 µM; in test [8], 2.71 µM; in test [9], 5.13 µM; in [10], 3 µM. For the same compound, the TGI in test [1] came out at 22.4 µM; in [2], 31.8 µM; in [3] it was 4.55 µM; in [4], 4.37 µM; in [5], 21.9 µM; in test [6] it was 9.52 µM. Besides, the TGI in [7] turned out to be 24.8 µM; in [8], 22.2 µM; in [9], 17.6 µM; in test [10] it was 14.4 µM.

With `Cc1c(-c2nc(N)nc(C3CC3)c2C)nc(N)nc1C1CC1`, the TGI in [1], in test [2], in [3], in [4], in [5] and in test [6] was over 100 µM in each case. Moreover, the TGI in test [7], in [8], in test [9] and in test [10] was over 100 µM in each case.

With `C=CCOc1c(Br)cc(Br)cc1Br`, the GI50 in test [1] is 45.8 µM; in [2], 10.4 µM; in test [3], 22.2 µM; in test [4], 19.6 µM; in [5], 6.7 µM; in test [6] it was 19.3 µM. The GI50 is 17.4 µM in test [7], 4.84 µM in test [8], 8.28 µM in test [9] and 2.82 µM in [10]. The TGI is over 100 µM in test [1]; over 100 µM in test [2]; 56.9 µM in test [3]; over 100 µM in test [4]; over 100 µM in test [5]; over 100 µM in [6]. In addition, the TGI in [7] is over 100 µM; in [8], over 100 µM; in [9], over 100 µM; in test [10], 57.8 µM.

For the compound `CC1=C(C)C(=O)O[C@@H]([C@](C)(O)[C@]2(O)CC[C@@]3(O)[C@@H]4C[C@H]5O[C@]56CC=CC(=O)[C@]6(C)[C@H]4CC[C@]23C)C1`, the GI50 in [1] was 0.568 µM; in test [2] it was 0.163 µM; in test [3], 0.0398 µM; in [4] it was 0.101 µM; in test [5] it was 0.394 µM; in [6], 0.169 µM. The GI50 was 0.395 µM in [7], 0.0552 µM in test [8], 0.483 µM in test [9] and 0.0957 µM in [10]. Moreover, the TGI came to 5.93 µM in test [1]; 0.176 µM in test [3]; 1.67 µM in [4]; 7.66 µM in test [5]; 0.62 µM in test [6]; 13.7 µM in test [7]. The TGI in [8] is over 100 µM; in [9], 2.23 µM; in test [10], 1.46 µM.

On to `CNc1nc(NC2CCCC2)nc(Sc2ccc(OC)cc2)n1`, for which the GI50 in test [1], in test [2], in [3], in test [4], in test [5] and in test [6] was over 10 µM throughout. Moreover, the GI50 in test [7], in test [8], in test [9] and in test [10] was over 10 µM in each case. Also, the TGI in test [1], in test [2], in test [3], in [4], in test [5] and in test [6] was over 10 µM each time. Moreover, the TGI in test [7], in test [8], in test [9] and in test [10] was over 10 µM throughout.

On to `COC(=O)C(Cc1ccccc1)N/C=C\C(=O)c1ccc(Cl)cc1` (centres undefined), for which the GI50 in [1] is 50.1 µM; in [2], 39.7 µM; in test [3], 32.5 µM; in test [4] it was 19.1 µM; in [5], 14.4 µM; in test [6], 20.4 µM. Moreover, the GI50 is 38 µM in test [7], 48.1 µM in test [8], 22 µM in [9] and 38.4 µM in [10]. Besides, the TGI in test [1] is over 100 µM; in test [2] it was over 100 µM; in test [3], over 100 µM; in test [4], 44.7 µM; in test [5], 40.9 µM; in test [6] it was 53.3 µM. Moreover, the TGI is over 100 µM in test [7], over 100 µM in test [8], 51.7 µM in test [9] and over 100 µM in test [10].
